Target: Prostaglandin F2-alpha receptor (Homo sapiens, UniProt P43088)
Test: In Vitro Test of Inhibition of Human FP Receptor Activity : For the characterization of test substances in respect of FP antagonism, PGF2α-induced calcium flux in FP-expressing CHEM1 cells (Millipore, HTS093C) was used.3000 cells in 25 μl of full medium [DMEM F12, 10% FCS, 1.35 mM sodium pyruvate, 20 mM HEPES, 4 mM GlutaMAX, 2% sodium bicarbonate, 1% Pen/Strep, 1% 100× non-essential amino acids] are sown per well of a 384 multititer plate (from Greiner, TC plate, black with clear base) and incubated at 37° C./5% CO2 for 24 hours. Prior to the measurement, the medium is replaced by 30 μl of Fluo-8 AM loading buffer [calcium-free Tyrode (130 mM NaCl, 5 mM KCl, 20 mM HEPES, 1 mM MgCl2, 4.8 mM NaHCO3, pH 7.4), 2 mM CaCl2, 1× SmartBlock (from CANDOR Bioscience GmbH), 4.5 mM Probenecid, 5 μM Fluo-8 AM, 0.016% Pluronic, 0.04% Brilliant black] and incubated at 37° C./5% CO2 for 30 minutes. The test substance is prepared in DMSO in various concentrations as a dose-response curve (starting concentration 10 mM, dilution factor 3.16) and prediluted 1:50 with calcium-free Tyrode/2 mM CaCl2. 10 μl of the prediluted substance solution are added to the Fluo-8-laden cells and incubated at 37° C./5% CO2 for 10 minutes. […]
Type: cell-based

Sequence of Prostaglandin F2-alpha receptor (P43088 whole entry): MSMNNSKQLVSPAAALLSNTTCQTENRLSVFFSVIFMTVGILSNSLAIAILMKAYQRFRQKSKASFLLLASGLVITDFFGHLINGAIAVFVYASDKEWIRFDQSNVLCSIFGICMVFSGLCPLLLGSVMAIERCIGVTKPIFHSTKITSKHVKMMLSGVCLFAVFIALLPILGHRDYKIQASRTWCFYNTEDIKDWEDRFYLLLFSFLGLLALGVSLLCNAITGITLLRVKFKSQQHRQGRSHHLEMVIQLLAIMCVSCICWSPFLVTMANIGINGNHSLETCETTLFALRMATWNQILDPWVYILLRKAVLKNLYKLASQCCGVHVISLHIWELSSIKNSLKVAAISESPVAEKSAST

IC50: 456 nM
Structure (SMILES): Cc1c(-c2ccccc2)nc2ccc(C(C)(C)C)cc2c1C(=O)NC12CCC(C(=O)O)(CC1)CC2

— ChEMBL document CHEMBL5725856, “Substituted N-bicyclo-2-aryl-quinolin-4-carboxamides and use thereof” (2018)
